The source made the active and inactive calls.
What was measured:
HEK293 = experiment: SAR analysis of compounds that are cytotoxic to HEK293 - Set 3. [Related pubchem assays (depositor defined):AID1575, AID1578, AID1848, AID1849, AID2001, AID2333, AID2334, AID2335, AID2337, AID2469]; assay type: functional, cell-based; conditions: Homo sapiens
Tumor necrosis factor = Tumor necrosis factor (Homo sapiens, UniProt P01375); experiment: TNFa-triggered NF-kB activation inhibitors, SAR follow-up, cell-based, set 3 (AID 2801); assay type: functional
[1] = molecular target: Nucleotide-binding oligomerization domain-containing protein 2 (Homo sapiens, UniProt Q9HC29); experiment: NOD2 signaling inhibitors, analog potency, SAR follow-up, cell-based, set 3 (AID 2799); assay type: functional
[2] = molecular target: T1, Nucleotide-binding oligomerization domain-containing protein 1 (Homo sapiens, UniProt Q9Y239); experiment: SAR analysis of compounds that inhibit NOD1 - Set 3. [Related pubchem assays (depositor defined):AID1566, AID1575, AID1578, AID1849, AID1852, AID2333, AID2335, AID2466]; assay type: functional
T1 sequence (Q9Y239 whole entry): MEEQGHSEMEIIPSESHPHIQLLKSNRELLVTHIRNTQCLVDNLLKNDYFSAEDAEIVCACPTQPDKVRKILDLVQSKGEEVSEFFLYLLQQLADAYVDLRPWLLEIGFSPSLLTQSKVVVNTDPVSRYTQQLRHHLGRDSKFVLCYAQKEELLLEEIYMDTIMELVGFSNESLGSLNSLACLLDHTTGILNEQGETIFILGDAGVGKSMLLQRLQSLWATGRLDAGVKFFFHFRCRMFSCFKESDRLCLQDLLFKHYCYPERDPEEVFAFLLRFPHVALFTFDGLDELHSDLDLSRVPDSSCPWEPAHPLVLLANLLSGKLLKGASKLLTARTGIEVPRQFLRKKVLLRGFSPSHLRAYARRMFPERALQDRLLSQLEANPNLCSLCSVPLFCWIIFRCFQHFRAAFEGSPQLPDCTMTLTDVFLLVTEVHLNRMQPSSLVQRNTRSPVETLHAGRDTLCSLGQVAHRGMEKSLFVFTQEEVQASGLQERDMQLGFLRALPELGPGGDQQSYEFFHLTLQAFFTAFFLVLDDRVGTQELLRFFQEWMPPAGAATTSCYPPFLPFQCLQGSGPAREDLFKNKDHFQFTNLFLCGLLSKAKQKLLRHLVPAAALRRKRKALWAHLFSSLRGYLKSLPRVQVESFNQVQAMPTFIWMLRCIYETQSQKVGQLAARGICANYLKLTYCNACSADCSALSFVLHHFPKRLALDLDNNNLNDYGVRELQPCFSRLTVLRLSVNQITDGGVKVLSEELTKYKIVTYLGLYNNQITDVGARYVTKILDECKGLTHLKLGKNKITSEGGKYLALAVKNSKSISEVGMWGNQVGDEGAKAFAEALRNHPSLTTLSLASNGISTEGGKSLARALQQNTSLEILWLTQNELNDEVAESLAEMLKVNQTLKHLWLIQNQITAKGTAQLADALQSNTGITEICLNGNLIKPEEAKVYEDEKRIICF

[3] = molecular target: Alkaline phosphatase, placental type (Homo sapiens, UniProt P05187); experiment: PLAP enzyme inhibitors, confirmation, biochemical, luminescence (AID 1512); assay type: functional
Coagulation factor XII = molecular target: T2, Coagulation factor XII (Homo sapiens, UniProt P00748); assay type: functional;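 also: activated factor XIIa alpha cleaving a fluorogenic AMC peptide substrate; inhibitor potency from loss of enzyme activity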
T2 sequence (P00748 whole entry): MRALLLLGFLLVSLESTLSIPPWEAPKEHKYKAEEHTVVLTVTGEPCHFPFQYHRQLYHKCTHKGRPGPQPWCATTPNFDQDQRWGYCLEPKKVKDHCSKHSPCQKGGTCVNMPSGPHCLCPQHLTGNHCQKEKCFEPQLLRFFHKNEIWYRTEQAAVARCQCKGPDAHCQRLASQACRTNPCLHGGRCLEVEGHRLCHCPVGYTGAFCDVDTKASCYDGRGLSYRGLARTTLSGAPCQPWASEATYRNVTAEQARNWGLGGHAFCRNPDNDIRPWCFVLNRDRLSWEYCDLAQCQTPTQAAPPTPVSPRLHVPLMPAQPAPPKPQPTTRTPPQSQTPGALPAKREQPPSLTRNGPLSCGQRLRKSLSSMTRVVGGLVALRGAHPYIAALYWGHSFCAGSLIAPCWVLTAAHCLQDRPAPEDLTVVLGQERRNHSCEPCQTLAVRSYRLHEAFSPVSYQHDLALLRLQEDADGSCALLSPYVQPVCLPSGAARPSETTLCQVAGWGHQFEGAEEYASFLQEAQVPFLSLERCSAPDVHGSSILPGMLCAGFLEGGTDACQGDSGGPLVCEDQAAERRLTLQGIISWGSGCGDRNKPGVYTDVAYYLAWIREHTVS

[4] = molecular target: T3, Alkaline phosphatase, tissue-nonspecific isozyme (Homo sapiens, UniProt P05186); experiment: human TNAP enzyme inhibitors, SAR follow-up, biochemical, luminescent, dose response (AID 1056)
T3 sequence (P05186 whole entry): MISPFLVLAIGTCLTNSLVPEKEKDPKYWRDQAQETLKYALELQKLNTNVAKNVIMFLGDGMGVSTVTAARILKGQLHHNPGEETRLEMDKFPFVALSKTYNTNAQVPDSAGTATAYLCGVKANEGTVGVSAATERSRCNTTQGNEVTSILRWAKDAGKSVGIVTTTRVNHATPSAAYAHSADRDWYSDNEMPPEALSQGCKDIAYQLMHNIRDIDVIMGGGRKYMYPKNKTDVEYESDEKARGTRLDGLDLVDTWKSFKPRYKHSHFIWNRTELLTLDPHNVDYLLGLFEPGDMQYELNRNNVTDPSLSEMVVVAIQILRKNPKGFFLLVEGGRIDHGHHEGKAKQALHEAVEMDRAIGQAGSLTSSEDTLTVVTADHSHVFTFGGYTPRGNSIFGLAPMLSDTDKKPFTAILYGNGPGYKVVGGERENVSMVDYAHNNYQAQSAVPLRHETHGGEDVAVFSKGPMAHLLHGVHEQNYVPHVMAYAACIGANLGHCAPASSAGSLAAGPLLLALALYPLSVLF

Mucolipin-3 = molecular target: T4, Mucolipin-3 (Homo sapiens, UniProt Q8TDD5); experiment: Fluorescence counterscreen assay for […] agonists: dose response cell-based high-throughput screening assay to identify agonists of the transient receptor potential channel ML3 (TRPML3). [Related pubchem assays: 1424, 1448 ]; assay type: functional
T4 sequence (Q8TDD5 whole entry): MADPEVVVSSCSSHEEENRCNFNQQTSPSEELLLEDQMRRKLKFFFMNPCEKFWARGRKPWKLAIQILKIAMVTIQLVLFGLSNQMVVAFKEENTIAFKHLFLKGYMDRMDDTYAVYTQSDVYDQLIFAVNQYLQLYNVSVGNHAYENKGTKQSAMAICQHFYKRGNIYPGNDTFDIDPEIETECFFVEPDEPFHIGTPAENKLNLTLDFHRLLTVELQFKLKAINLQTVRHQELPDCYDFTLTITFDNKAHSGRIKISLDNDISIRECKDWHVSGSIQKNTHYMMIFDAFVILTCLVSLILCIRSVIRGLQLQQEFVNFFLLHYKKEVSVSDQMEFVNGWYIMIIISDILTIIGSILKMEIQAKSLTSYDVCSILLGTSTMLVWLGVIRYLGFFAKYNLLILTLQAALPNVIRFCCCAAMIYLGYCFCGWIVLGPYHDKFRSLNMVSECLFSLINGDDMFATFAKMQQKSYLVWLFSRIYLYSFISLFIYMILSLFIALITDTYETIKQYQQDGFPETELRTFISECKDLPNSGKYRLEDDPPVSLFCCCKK

Ion channel NompC = Ion channel NompC (Danio rerio, UniProt Q7T1G6); experiment: Dose response cell-based high-throughput screening assay for agonists of the transient receptor potential channel N1 (TRPN1). [Related pubchem assays (depositor defined):AID1424, AID1448]; assay type: functional
[5] = molecular target: Peroxisome proliferator-activated receptor gamma/Nuclear receptor coactivator 1 (Homo sapiens, UniProt P37231); experiment: TR-FRET dose response biochemical High Throughput Screening assay for agonists of the steroid receptor coactivator 1 (SRC-1) recruitment by the peroxisome proliferator-activated receptor gamma (PPAR gamma): non-selective agonists. [Related pubchem assays (depositor defined):AID1300, AID1808, AID504735, AID631]; assay type: protein assay
[6] = molecular target: Peroxisome proliferator-activated receptor gamma/Nuclear receptor coactivator 2 (Homo sapiens, UniProt P37231); experiment: (§1) TR-FRET dose response biochemical High Throughput Screening assay for agonists of the steroid receptor coactivator 2 (SRC-2) recruitment by the peroxisome proliferator-activated receptor gamma (PPAR gamma): non-selective agonists. [Related pubchem assays: 1297, 1032 ]; assay type: functional
[7] = molecular target: Peroxisome proliferator-activated receptor gamma/Nuclear receptor coactivator 3 (Homo sapiens, UniProt P37231); experiment: as §1, with “3 (SRC-3)” for “2 (SRC-2)”, “1301 (Confirmation screen.), 1048 (Primary screen.)]” for “1297, 1032 ]”; assay type: functional
[8] = molecular target: Lysine-specific demethylase 4C (Homo sapiens, UniProt Q9H3R0); experiment: GASC-1 (JMJD2C) histone demethylase inhibitors, dose response, biochemical, DELFIA europium, cherry-picked samples (AID 488835); assay type: functional

Sequence of Peroxisome proliferator-activated receptor gamma/Nuclear receptor coactivator 1 (P37231 whole entry): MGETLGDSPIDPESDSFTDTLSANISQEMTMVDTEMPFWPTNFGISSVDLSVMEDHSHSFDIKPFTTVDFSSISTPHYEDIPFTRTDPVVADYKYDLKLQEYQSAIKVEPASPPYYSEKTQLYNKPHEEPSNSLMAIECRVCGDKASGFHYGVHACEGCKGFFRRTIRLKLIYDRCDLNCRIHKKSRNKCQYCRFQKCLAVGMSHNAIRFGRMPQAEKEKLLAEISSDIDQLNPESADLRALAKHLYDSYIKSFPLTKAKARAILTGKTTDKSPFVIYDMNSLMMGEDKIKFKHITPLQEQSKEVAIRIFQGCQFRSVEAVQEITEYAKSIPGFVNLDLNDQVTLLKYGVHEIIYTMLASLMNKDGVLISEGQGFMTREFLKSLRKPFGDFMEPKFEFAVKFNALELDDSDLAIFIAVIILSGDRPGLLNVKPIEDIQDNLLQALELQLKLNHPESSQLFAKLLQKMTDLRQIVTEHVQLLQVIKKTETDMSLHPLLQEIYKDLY
Sequence of Peroxisome proliferator-activated receptor gamma/Nuclear receptor coactivator 1 (Q15788 whole entry, further chain): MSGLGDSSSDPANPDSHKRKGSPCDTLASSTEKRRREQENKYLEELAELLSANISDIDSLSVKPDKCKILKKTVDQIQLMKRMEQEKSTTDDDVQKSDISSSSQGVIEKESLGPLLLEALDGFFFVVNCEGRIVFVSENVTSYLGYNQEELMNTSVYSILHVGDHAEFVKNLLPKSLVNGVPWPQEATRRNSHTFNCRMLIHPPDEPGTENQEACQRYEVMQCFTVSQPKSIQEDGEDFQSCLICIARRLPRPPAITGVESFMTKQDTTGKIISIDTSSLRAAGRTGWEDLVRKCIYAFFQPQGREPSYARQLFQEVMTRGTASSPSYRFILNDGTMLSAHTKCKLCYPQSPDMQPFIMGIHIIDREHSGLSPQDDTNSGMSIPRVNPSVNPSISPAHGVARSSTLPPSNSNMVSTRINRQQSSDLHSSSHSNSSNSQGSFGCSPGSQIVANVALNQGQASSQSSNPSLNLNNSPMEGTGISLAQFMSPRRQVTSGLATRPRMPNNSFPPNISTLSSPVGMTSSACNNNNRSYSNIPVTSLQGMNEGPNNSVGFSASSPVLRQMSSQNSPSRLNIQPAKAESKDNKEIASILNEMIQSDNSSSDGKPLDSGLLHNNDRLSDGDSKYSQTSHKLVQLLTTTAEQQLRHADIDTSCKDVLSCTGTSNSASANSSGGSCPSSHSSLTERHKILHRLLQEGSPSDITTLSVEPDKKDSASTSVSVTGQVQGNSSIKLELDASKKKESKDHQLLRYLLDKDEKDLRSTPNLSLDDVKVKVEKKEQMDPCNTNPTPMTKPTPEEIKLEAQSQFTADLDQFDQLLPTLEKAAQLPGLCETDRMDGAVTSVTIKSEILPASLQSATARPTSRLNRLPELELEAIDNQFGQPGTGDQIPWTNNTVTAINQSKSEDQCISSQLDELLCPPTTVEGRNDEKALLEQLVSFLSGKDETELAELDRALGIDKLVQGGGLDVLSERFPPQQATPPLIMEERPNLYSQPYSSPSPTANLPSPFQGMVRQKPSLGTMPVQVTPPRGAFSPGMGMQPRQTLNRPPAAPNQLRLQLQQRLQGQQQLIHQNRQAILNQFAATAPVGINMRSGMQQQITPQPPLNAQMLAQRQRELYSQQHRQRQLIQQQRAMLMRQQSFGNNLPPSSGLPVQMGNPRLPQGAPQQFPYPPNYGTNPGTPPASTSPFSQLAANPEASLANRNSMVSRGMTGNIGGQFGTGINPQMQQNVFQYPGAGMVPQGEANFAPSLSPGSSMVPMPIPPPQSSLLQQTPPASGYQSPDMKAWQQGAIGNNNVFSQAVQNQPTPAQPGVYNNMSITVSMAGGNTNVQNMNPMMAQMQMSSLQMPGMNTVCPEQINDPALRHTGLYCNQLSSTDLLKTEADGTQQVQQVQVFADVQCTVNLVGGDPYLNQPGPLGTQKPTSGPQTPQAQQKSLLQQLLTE
Sequence of Peroxisome proliferator-activated receptor gamma/Nuclear receptor coactivator 2 (P37231 whole entry): as the sequence (P37231 whole entry) above
Sequence of Peroxisome proliferator-activated receptor gamma/Nuclear receptor coactivator 2 (Q15596 whole entry, further chain): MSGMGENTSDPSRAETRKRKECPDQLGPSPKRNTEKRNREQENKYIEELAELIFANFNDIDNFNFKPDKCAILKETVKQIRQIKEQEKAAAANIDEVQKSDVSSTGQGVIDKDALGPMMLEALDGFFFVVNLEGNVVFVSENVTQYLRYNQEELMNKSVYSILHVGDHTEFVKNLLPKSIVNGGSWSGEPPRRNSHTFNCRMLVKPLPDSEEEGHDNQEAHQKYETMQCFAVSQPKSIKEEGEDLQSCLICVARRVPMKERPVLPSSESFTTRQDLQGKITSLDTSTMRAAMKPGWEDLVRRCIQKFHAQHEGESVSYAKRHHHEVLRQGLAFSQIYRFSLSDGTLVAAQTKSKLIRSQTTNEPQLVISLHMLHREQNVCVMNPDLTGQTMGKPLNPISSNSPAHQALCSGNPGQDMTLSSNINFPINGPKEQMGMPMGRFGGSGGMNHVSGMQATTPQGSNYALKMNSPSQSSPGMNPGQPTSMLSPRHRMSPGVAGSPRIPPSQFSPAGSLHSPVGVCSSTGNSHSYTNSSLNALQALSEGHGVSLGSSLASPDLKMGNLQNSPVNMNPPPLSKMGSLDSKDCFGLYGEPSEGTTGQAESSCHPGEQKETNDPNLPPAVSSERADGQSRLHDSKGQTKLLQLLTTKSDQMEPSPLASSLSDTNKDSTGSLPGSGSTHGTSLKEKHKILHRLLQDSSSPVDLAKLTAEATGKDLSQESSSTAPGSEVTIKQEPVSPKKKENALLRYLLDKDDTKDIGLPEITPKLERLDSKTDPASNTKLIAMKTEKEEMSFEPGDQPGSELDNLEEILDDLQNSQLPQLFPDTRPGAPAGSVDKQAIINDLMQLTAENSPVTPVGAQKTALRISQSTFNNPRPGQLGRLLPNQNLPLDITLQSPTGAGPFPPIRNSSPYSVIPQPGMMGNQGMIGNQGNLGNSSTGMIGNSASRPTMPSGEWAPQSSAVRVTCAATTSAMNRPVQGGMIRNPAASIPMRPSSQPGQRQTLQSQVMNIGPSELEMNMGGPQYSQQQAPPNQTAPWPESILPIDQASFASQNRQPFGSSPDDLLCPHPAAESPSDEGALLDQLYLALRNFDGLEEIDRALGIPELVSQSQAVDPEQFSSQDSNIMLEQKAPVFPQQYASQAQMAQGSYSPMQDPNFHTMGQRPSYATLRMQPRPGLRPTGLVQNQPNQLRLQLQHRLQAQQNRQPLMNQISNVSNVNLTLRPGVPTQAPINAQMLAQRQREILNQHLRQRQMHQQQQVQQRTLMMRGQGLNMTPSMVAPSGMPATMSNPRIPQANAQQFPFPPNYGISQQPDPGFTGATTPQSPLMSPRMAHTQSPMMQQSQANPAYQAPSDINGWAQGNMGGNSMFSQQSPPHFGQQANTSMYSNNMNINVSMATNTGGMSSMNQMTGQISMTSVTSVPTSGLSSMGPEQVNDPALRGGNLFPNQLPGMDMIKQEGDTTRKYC
Sequence of Alkaline phosphatase, placental type (P05187 whole entry): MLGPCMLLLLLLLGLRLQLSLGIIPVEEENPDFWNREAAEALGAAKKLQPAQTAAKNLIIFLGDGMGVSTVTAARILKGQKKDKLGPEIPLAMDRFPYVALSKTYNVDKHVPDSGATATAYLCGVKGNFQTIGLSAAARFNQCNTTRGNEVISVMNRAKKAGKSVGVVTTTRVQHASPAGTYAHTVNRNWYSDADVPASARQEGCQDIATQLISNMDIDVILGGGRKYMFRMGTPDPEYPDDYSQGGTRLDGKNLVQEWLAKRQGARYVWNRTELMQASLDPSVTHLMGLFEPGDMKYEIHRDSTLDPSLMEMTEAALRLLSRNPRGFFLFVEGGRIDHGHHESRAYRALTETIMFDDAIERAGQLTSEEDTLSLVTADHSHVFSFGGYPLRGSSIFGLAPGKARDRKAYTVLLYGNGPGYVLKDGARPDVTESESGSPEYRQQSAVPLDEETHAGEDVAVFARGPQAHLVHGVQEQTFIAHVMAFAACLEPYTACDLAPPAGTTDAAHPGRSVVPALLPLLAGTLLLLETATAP
Sequence of Tumor necrosis factor (P01375 whole entry, the tested form may be a part): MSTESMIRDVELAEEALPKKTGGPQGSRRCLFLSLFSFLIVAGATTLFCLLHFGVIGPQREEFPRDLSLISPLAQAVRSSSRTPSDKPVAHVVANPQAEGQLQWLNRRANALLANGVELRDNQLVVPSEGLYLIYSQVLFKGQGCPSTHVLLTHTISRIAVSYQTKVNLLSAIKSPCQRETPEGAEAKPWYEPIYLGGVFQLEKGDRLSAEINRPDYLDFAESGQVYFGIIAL

With `Nc1nc2ccccc2n1S(=O)(=O)c1ccc(F)cc1` as the molecule, how does the IC50 (HEK293) read?
Its IC50 is > 20 µM (inactive).

And the IC50 (Tumor necrosis factor)?
The IC50 was > 20 µM (inactive).

What about the IC50 [1] of the same molecule?
Its IC50 is > 20 µM (inactive).

What about the IC50 [2] of the same molecule?
The IC50 was 4.31 µM (active).

What does the source list for `Cn1c(SCC(=O)c2ccccc2)nnc1-c1cccc(N)c1`?
IC50 [3]: > 100 µM (inactive); IC50 (Coagulation factor XII): > 50 µM (inactive); IC50 [4]: > 100 µM (inactive)

With `CCOC(=O)c1ccc(NC(=O)Nc2ccc(F)cc2)cc1` as the molecule, how does the EC50 (Mucolipin-3) read?
Its EC50 is > 29.9 µM (not active).

What about the EC50 (Ion channel NompC) of the same molecule?
Its EC50 is > 9.97 µM (inactive).

Which results are given for `Brc1ccc(-c2nc3ccccc3s2)s1`?
EC50 [5]: 3.34 µM (active); EC50 [6]: 3.18 µM (active); EC50 [7]: 81.4 µM (not active)

Which EC50 [5] does the source give for `Cn1c(=O)cc(SCC(=O)N2CCC3(CC2)OCCO3)c2ccccc21` here?
Its EC50 is > 79.4 µM (inactive).

What about the EC50 [6] of the same molecule?
The EC50 was > 79.4 µM (not active).

What about the EC50 [7] of the same molecule?
Its EC50 is > 79.4 µM (not active).

For `CCCN(C(=O)Cc1ccc(S(=O)(=O)N2CCOCC2)s1)c1c(N)n(Cc2ccccc2)c(=O)[nH]c1=O`, which AC50 [8] is on record?
The AC50 was 39.2 µM (active).

Source: ChEMBL document CHEMBL1201862, “PubChem BioAssay data set” (2004)
